Read-outs that look alike come from different tables or passages of the source.
How the values were obtained:
[1] = DPPH˙ radical scavenging by cyclic voltammetry
Method: The antioxidant properties were evaluated in terms of their activity against some free radicals, and other compounds reported in the literature, relevant for this purpose, such as: • ferric ions (Fe^3+)—used to test the reduction of the antioxidant character of the compounds; • DPPH˙ free radical– used to test the scavenging effect of the compounds on this radical; • hydrogen peroxide (H2O2)—used to test the scavenging effect of the synthesized molecules on this compound; • 2,2,6,6-tetramethylpiperidinyl-1-oxy (TEMPO)—used to test the scavenging effect of the synthesized molecules on this compound.
The radical scavenging properties of the novel compounds and the other antioxidants were determined using a stock DPPH˙ radical solution prepared in absolute ethanol. The antioxidant samples were mixed with DPPH˙ solution and HClO4 electrolyte and incubated in the dark for 30 min. The remaining redox activity of DPPH was measured by cycling the potential between −0.7 V and 1.2 V, with a scan rate of 0.1 V/s.
The nitrogen-centered 2-2-diphenyl-1-picrylhydrazyl radical (DPPH˙) based assay is one of the most commonly employed method to evaluate the ability of a compound to scavenge or neutralize free radicals based on the reduction of the radical.
Taking into account the redox activity of DPPH˙, its diminution by an antioxidant can also be followed by CV, which is expected to show changes in the voltammetric peaks. Figure A5 reports the electrochemical study of initial electrooxidation of DPPH˙ and the novel compounds compared to remaining peaks after their incubation for 30 min. The decrease of all the peaks after mixture incubation indicates the partial consumption of DPPH˙.

[2] = ABTS˙^+ radical scavenging assay; assay type: biochemical; conditions: for IC50: ABTS˙^+ scavenging
Method: The assay was based on the decolorization of green (2,2′-azinobis-(3-ethylbenzothiazoline-6-sulfonic acid) ABTS˙^+ to ABTS, on the principle reported by Re et al. and was carried out according to our previously published research.
Later, 1950 µL of ABTS˙^+ reagent was added to all cuvettes and they were shaken for well over 10 min in the dark at room temperature. The absorbance of the resulted solutions found in cuvettes was determined spectrophotometrically at λ = 734 nm. The ABTS scavenging activity of the compounds was calculated using the following Equation (1):(1) ABTS scavenging (%)=control absorbance−sample absorbance/control absorbance×100

[3] = test system: HaCaT cells; assay: Cytotoxicity determination, MTT method; assay type: cell-based; conditions: Homo sapiens, HaCaT cells, MTT, 24 h
Method: To determine the cytotoxic action of the obtained compounds 5[…], and 8a-b, a normal human keratinocytes cell line was used (HaCaT keratinocytes, CLS-300493, Eppelheim, Germany). HaCaT cells were cultured in Dulbecco's Modified Eagle Media (DMEM) supplemented with 1% L-glutamine, 1% penicillin-streptomycin, and 5% fetal bovine serum. At 80% confluence, the cells were transferred to 96 well plates at a confluence of 12×10^3 cells/well and left to attach for 24 h at 37°C and 5% CO2 in a humidified atmosphere. […] After 24 h, the culture media was replaced with 100 μL of MTT solution at a final concentration of 5 μg/mL/well and left to interact with the cells for 2 h in the incubator. After this, the MTT solution was replaced with 100 μL of isopropanol, left to dissolve the formazan crystals for 5 min, and read at 550 and 630 nm using a BioTek Epoch plate reader (BioTek Instruments, Winooski, VT, USA) and Gen5 software (version 1.09).

[4] = test system: P. aeruginosa ATCC 27853; assay: Antimicrobial activity, modified microdilution; assay type: cell-based; conditions: Pseudomonas aeruginosa, ATCC27853
Method: (§1) For evaluating the antimicrobial activity of the compounds, […] aerobic microbial strains were used: S. aureus ATCC 25923, S. pyogenes ATCC 19615, P. aeruginosa ATCC 27853, S. enterica ISM 83/37, S. typhimurium ATCC 14028, E. coli ATCC 8739, E. coli ATCC 25922, and C. albicans ATCC 102310 obtained from Food Biotechnology Laboratory, Life Sciences Institute, University of Agricultural Sciences, and Veterinary Medicine Cluj Napoca, where the experiment was performed. The antimicrobial activity of the compounds was determined using a modified microdilution technique, and the followed protocol was previously reported.
(§2) The antimicrobial activity of the final compounds, against seven aerobic microbial strains (S. aureus ATCC 25923, S. pyogenes ATCC 19615, P. aeruginosa ATCC 27853, S. enterica ISM 83/37, S. typhimurium ATCC 14028, E. coli ATCC 8739, E. coli ATCC 25922), and a fungal strain (C. albicans ATCC 102310), was determined using a modified microdilution technique.
(§3) The results of the antimicrobial activity evaluation of the compounds, in comparison to norfloxacin and chloramphenicol used as standard antibiotics and fluconazole used as reference antifungal, are depicted in Table 10.

[5] = test system: S. typhimurium ATCC 14028; assay: Antimicrobial activity, modified microdilution; assay type: cell-based; conditions: Salmonella enterica
Method: as §1, §2, §3

[6] = test system: E. coli ATCC 25922; assay: Antimicrobial activity, modified microdilution; assay type: cell-based; conditions: Escherichia coli, ATCC25922
Method: as §1, §2, §3

[7] = test system: E. coli ATCC 8739; assay: Antimicrobial activity, modified microdilution; assay type: cell-based; conditions: Escherichia coli, ATCC8739
Method: as §1, §2, §3

[8] = test system: S. pyogenes ATCC 19615; assay: Antimicrobial activity, modified microdilution; assay type: cell-based; conditions: Streptococcus pyogenes, ATCC19615
Method: as §1, §2, §3

[9] = test system: S. aureus ATCC 25923; assay: Antimicrobial activity, modified microdilution; assay type: cell-based; conditions: Staphylococcus aureus, ATCC25923
Method: as §1, §2, §3

[10] = test system: S. enterica ISM 83/37; assay: Antimicrobial activity, modified microdilution; assay type: cell-based; conditions: Salmonella enterica, ISM83/37
Method: as §1, §2, §3

[11] = compound + DPPH, 30 min, 1st Ered
[12] = compound + DPPH, 30 min, 1st Ired
[13] = compound + DPPH, 30 min, 2nd Eox
[14] = compound alone, 2nd Ered column
[15] = compound + DPPH, 30 min, 3rd Eox column
[16] = compound + DPPH, 30 min, 3rd Iox column
[17] = compound + DPPH, after 30 min of reaction, 1st Eox column
[18] = compound + DPPH, after 30 min of reaction, 1st Iox column
[19] = compound alone 0.5 mM in 0.1 M HClO4, 1st Eox column
[20] = compound alone 0.5 mM in 0.1 M HClO4, 1st Iox column
[21] = P. aeruginosa ATCC 27853, read-out: MIC
[22] = S. typhimurium ATCC 14028, read-out: MIC
[23] = E. coli ATCC 25922, read-out: MIC
[24] = E. coli ATCC 8739, read-out: MIC
[25] = S. pyogenes ATCC 19615, read-out: MIC
[26] = S. aureus ATCC 25923, read-out: MIC

| Structure (SMILES) | Iox (μA) ([1]; compound + DPPH, 30 min) | Ered (V) [1, 11] [V] | Ired (μA) [1, 12] [μA] | Eox (V) [1, 13] [V] | Iox (μA) ([1]; compound alone) | Eox (V) ([1]; compound alone, 2nd Eox) | Ered (V) [1, 14] [V] | Ired (μA) ([1]; compound alone, 2nd Ired) | % of ABTS˙^+ Scavenged ([2]; 0.5 µg/mL) [%] | % of ABTS˙^+ Scavenged ([2]; 0.75 µg/mL) [%] | % of ABTS˙^+ Scavenged ([2]; 1 µg/mL) [%] | % of ABTS˙^+ Scavenged ([2]; 1.5 µg/mL) [%] | % of ABTS˙^+ Scavenged ([2]; 2.5 µg/mL) [%] | IC50 [2] [µg/mL] | IC50 ([3]; read-out: IC50) [µM] | IC50 ([3]; read-out: IC50 (µg/mL)) [µg/mL] | MIC [10] [µg/mL] | Eox (V) [1, 15] [V] | Iox (μA) [1, 16] [μA] | Eox (V) [1, 17] [V] | other results |
| --- | --- | --- | --- | --- | --- | --- | --- | --- | --- | --- | --- | --- | --- | --- | --- | --- | --- | --- | --- | --- | --- |
| Br.NC(=O)c1cc(-c2csc(N/N=C/c3ccc(O)cc3O)n2)ccc1O [Compound 7b, (E)-1-(4-(3-carbamoyl-4-hydroxyphenyl)thiazol-2-yl)-2-(2,4-dihydroxybenzylidene) hydrazin-1-ium bromide] | 9.076 | 0.291 | −7.43 | 0.359 | 15.65 | 0.342 | 0.276 | −2.54 | 25.42 | 30.15 | 36.50 | 49.20 | 69.53 | 1.60 | 93.9 | 42.4 | > 100 |  |  |  | MIC [4]: 15.6 µg/mL; MIC [5]: > 100 µg/mL; MIC [6]: > 100 µg/mL; MIC [7]: > 100 µg/mL; MIC [8]: > 100 µg/mL; MIC [9]: > 100 µg/mL |
| C/C(=N\Nc1nc(-c2ccc(O)c(O)c2)cs1)c1ccc(O)cc1O.Cl [Compound 8a, (E)-2-(1-(2,4-dihydroxyphenyl)ethylidene)-1-(4-(3,4-dihydroxyphenyl)thiazol-2-yl)hydrazin-1-ium chloride] | 11.18 |  |  | 0.311 | 6.97 | 0.325 | 0.278 | −18.04 | 25.40 | 33.32 | 41.07 | 58.72 | 90.97 | 1.25 | 113 | 44.6 | > 100 | 0.455 | 20.68 | 0.188 | Eox (V) ([1]; compound + DPPH, 30 min, 4th Eox column): 0.908 V; Iox (μA) ([1]; compound + DPPH, 30 min, 4th Iox column): 6.39 μA; Iox (μA) [1, 18]: 11.53 μA; Eox (V) [1, 19]: 0.193 V; Iox (μA) [1, 20]: 3.56 μA; Eox (V) ([1]; compound alone, 3rd Eox column): 0.459 V; Iox (μA) ([1]; compound alone, 3rd Iox column): 22.39 μA; Eox (V) ([1]; compound alone, 4th Eox column): 0.935 V; Iox (μA) ([1]; compound alone, 4th Iox column): 6.88 μA; MIC [4, 21]: 7.8 µg/mL; MIC [5, 22]: > 100 µg/mL; MIC [6, 23]: > 100 µg/mL; MIC [7, 24]: > 100 µg/mL; MIC [8, 25]: > 100 µg/mL; MIC [9, 26]: > 100 µg/mL |
| Cl.Oc1ccc(/C=N/Nc2nc(-c3ccc(O)c(O)c3)cs2)c(O)c1 [Compound 8b, (E)-2-(2,4-dihydroxybenzylidene)-1-(4-(3,4-dihydroxyphenyl)thiazol-2-yl)hydrazin-1-ium chloride] |  | 0.259 | −14.96 |  |  |  | 0.127 | −3.52 | 40.09 | 44.44 | 50.79 | 66.66 | 96.82 | 0.91 | 22.5 | 8.54 | > 100 | 0.457 | 18.63 | 0.247 | Iox (μA) [1, 18]: 17.56 μA; Eox (V) [1, 19]: 0.259 V; Iox (μA) [1, 20]: 10.92 μA; Eox (V) ([1]; compound alone, 3rd Eox column): 0.47 V; Iox (μA) ([1]; compound alone, 3rd Iox column): 29.61 μA; MIC [4, 21]: 31.2 µg/mL; MIC [5, 22]: > 100 µg/mL; MIC [6, 23]: > 100 µg/mL; MIC [7, 24]: > 100 µg/mL; MIC [8, 25]: > 100 µg/mL; MIC [9, 26]: > 100 µg/mL |

— PMC8615111, “Phenolic Thiazoles with Antioxidant and Antiradical Activity. Synthesis, In Vitro Evaluation, Toxicity, Electrochemical Behavior, Quantum Studies and Antimicrobial Screening” (Antioxidants, 2021)
